Tests used:
Format in all cases: in vivo
[1] = tested on: umbrella sedge (Cyperus difformis); assay: Test B flooded paddy test; details: for Plant response rating, Flood, Sedge, Umbrella: 250 g ai/ha, flooded paddy test, visual rating on 0 to 100 scale (0 no effect, 100 complete control) after 13 to 15 days; for Plant response rating, Sedge, Umbrella: Flood (flooded paddy test), 13 to 15 days; for Sedge, Umbrella plant response rating: Flood, 31 g ai/ha, scale 0 to 100 (0 no effect, 100 complete control)
Method in brief: (§1)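 Plants were grown to the 2-leaf stage, then pots were flooded to 3 cm above the soil and compounds were applied directly into the paddy water. That depth was held throughout. After 13 to 15 days in a greenhouse, injury was visually rated against controls on a 0–100 scale.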

[2] = tested on: ducksalad (Heteranthera limosa); assay: Test B flooded paddy test; details: for Plant response rating, Flood, Ducksalad: 250 g ai/ha, flooded paddy test, visual rating on 0 to 100 scale (0 no effect, 100 complete control) after 13 to 15 days; for Plant response rating, Ducksalad: Flood (flooded paddy test), 13 to 15 days; for Ducksalad plant response rating: Flood, 31 g ai/ha, scale 0 to 100 (0 no effect, 100 complete control)
Method in brief: as §1

[3] = tested on: barnyardgrass (Echinochloa crus-galli); assay: Test B flooded paddy test; details: for Plant response rating, Flood, Barnyardgrass: 250 g ai/ha, flooded paddy test, visual rating on 0 to 100 scale (0 no effect, 100 complete control) after 13 to 15 days; for Plant response rating, Barnyardgrass: Flood (flooded paddy test), 13 to 15 days; for Barnyardgrass plant response rating: Flood, 31 g ai/ha, scale 0 to 100 (0 no effect, 100 complete control)
Method in brief: as §1

[4] = tested on: rice (Oryza sativa); assay: Test B flooded paddy test; details: for Plant response rating, Flood, Rice: 250 g ai/ha, flooded paddy test, visual rating on 0 to 100 scale (0 no effect, 100 complete control) after 13 to 15 days; for Plant response rating, Rice: Flood (flooded paddy test), 13 to 15 days; for Rice plant response rating: Flood, 31 g ai/ha, scale 0 to 100 (0 no effect, 100 complete control)
Method in brief: as §1

[5] = tested on: wheat (Triticum aestivum); assay: Test A pre-/postemergence plant response
Method in brief: (§2)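 Visually rated 0–100 injury (100 = complete control) versus untreated plants, ~10 days in greenhouse. Application pre- (soil spray, loam/sand) and postemergence (2–10 cm, 1–2 leaf stage), same timepoint.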

[6] = tested on: morningglory (Ipomoea spp.); assay: Test A pre-/postemergence plant response
Method in brief: as §2

[7] = tested on: velvetleaf (Abutilon theophrasti); assay: Test A pre-/postemergence plant response
Method in brief: as §2

[8] = tested on: barnyardgrass (Echinochloa crus-galli); assay: Test A pre-/postemergence plant response
Method in brief: as §2

[9] = tested on: corn (Zea mays); assay: Test A pre-/postemergence plant response
Method in brief: as §2

[10] = tested on: large crabgrass (Digitaria sanguinalis); assay: Test A pre-/postemergence plant response
Method in brief: as §2

[11] = tested on: giant foxtail (Setaria faberii); assay: Test A pre-/postemergence plant response
Method in brief: as §2

[12] = tested on: pigweed (Amaranthus retroflexus); assay: Test A pre-/postemergence plant response
Method in brief: as §2

[13] = 62 g ai/ha, scale of 0 to 100 where 0 is no effect and 100 is complete control
[14] = 125 g ai/ha, scale 0 to 100, 0 is no effect, 100 is complete control
[15] = Postemergence, 125 g ai/ha, 0 to 100 scale where 0 is no effect and 100 is complete control
[16] = Postemergence, 500 g ai/ha, visual injury, 0 to 100 scale (0 no effect, 100 complete control), approx. ten days
[17] = Preemergence, 125 g ai/ha, 0 to 100 scale, 0 = no effect, 100 = complete control
[18] = Preemergence, 500 g ai/ha, 0 to 100 scale, 0 = no effect, 100 = complete control
[19] = Postemergence, 500 g ai/ha, 0 to 100 scale, 0 = no effect, 100 = complete control, approx. ten days
[20] = Preemergence, 500 g ai/ha, visual injury, 0 to 100 scale (0 no effect, 100 complete control), approx. ten days

## O=C1CCCC(O)=C1C(=O)c1cnc(-c2cccc(C(F)(F)F)c2)n(C2CCCCC2)c1=O [Compound 195]
[1]
  Plant response rating, Flood, Sedge, Umbrella: 65
  Sedge, Umbrella plant response rating: 0
[1]; [13]
  Plant response rating, Sedge, Umbrella: 0
[1]; [14]
  Plant response rating, Sedge, Umbrella: 50
[2]
  Plant response rating, Flood, Ducksalad: 85
  Ducksalad plant response rating: 0
[2]; [13]
  Plant response rating, Ducksalad: 50
[2]; [14]
  Plant response rating, Ducksalad: 70
[3]
  Plant response rating, Flood, Barnyardgrass: 20
  Barnyardgrass plant response rating: 0
[3]; [13]
  Plant response rating, Barnyardgrass: 0
[3]; [14]
  Plant response rating, Barnyardgrass: 0
[4]
  Plant response rating, Flood, Rice: 15
  Rice plant response rating: 0
[4]; [13]
  Plant response rating, Rice: 0
[4]; [14]
  Plant response rating, Rice: 0
[5]; [15]
  Plant response rating, Wheat: 0
[5]; [16]
  Wheat plant response rating: 0
[5]; [17]
  Plant response rating, Wheat: 0
[5]; [18]
  Plant response rating, Wheat: 20
[6]; [15]
  Plant response rating, Morningglory: 60
[6]; [17]
  Plant response rating, Morningglory: 0
[6]; [18]
  Plant response rating, Morningglory: 0
[7]; [15]
  Plant response rating, Velvetleaf: 100
[7]; [16]
  Velvetleaf plant response rating: 100
[7]; [17]
  Plant response rating, Velvetleaf: 0
[7]; [18]
  Plant response rating, Velvetleaf: 50
[8]; [15]
  Plant response rating, Barnyardgrass: 70
[8]; [16]
  Barnyardgrass plant response rating: 90
[8]; [17]
  Plant response rating, Barnyardgrass: 0
[8]; [18]
  Plant response rating, Barnyardgrass: 10
[9]; [15]
  Plant response rating, Corn: 0
[9]; [16]
  Corn plant response rating: 20
[9]; [17]
  Plant response rating, Corn: 0
[9]; [18]
  Plant response rating, Corn: 0
[10]; [15]
  Plant response rating, Crabgrass, Large: 40
[10]; [16]
  Crabgrass, Large plant response rating: 90
[10]; [17]
  Plant response rating, Crabgrass, Large: 0
[10]; [18]
  Plant response rating, Crabgrass, Large: 50
[11]; [15]
  Plant response rating, Foxtail, Giant: 30
[11]; [16]
  Foxtail, Giant plant response rating: 70
[11]; [17]
  Plant response rating, Foxtail, Giant: 0
[11]; [18]
  Plant response rating, Foxtail, Giant: 30
[12]; [15]
  Plant response rating, Pigweed: 90
[12]; [16]
  Pigweed plant response rating: 100
[12]; [17]
  Plant response rating, Pigweed: 0
[12]; [18]
  Plant response rating, Pigweed: 10

## CCCc1ncc(C(=O)C2=C(O)CCCC2=O)c(=O)n1Cc1ccccc1 [Compound 103]
[1]
  Plant response rating, Flood, Sedge, Umbrella: 0
  Sedge, Umbrella plant response rating: 0
[1]; [13]
  Plant response rating, Sedge, Umbrella: 0
[1]; [14]
  Plant response rating, Sedge, Umbrella: 0
[2]
  Plant response rating, Flood, Ducksalad: 0
  Ducksalad plant response rating: 0
[2]; [13]
  Plant response rating, Ducksalad: 0
[2]; [14]
  Plant response rating, Ducksalad: 0
[3]
  Plant response rating, Flood, Barnyardgrass: 0
  Barnyardgrass plant response rating: 0
[3]; [13]
  Plant response rating, Barnyardgrass: 0
[3]; [14]
  Plant response rating, Barnyardgrass: 0
[4]
  Plant response rating, Flood, Rice: 0
  Rice plant response rating: 0
[4]; [13]
  Plant response rating, Rice: 0
[4]; [14]
  Plant response rating, Rice: 0
[5]; [15]
  Plant response rating, Wheat: 0
[5]; [19]
  Plant response rating, Wheat: 0
[5]; [17]
  Plant response rating, Wheat: 0
[5]; [20]
  Plant response rating, Wheat: 0
[6]; [15]
  Plant response rating, Morningglory: 100
[6]; [19]
  Plant response rating, Morningglory: 100
[6]; [17]
  Plant response rating, Morningglory: 20
[6]; [20]
  Plant response rating, Morningglory: 60
[7]; [15]
  Plant response rating, Velvetleaf: 100
[7]; [19]
  Plant response rating, Velvetleaf: 100
[7]; [17]
  Plant response rating, Velvetleaf: 60
[7]; [20]
  Plant response rating, Velvetleaf: 90
[8]; [15]
  Plant response rating, Barnyardgrass: 30
[8]; [19]
  Plant response rating, Barnyardgrass: 60
[8]; [17]
  Plant response rating, Barnyardgrass: 0
[8]; [20]
  Plant response rating, Barnyardgrass: 20
[9]; [15]
  Plant response rating, Corn: 0
[9]; [19]
  Plant response rating, Corn: 20
[9]; [17]
  Plant response rating, Corn: 0
[9]; [20]
  Plant response rating, Corn: 0
[10]; [15]
  Plant response rating, Crabgrass, Large: 10
[10]; [19]
  Plant response rating, Crabgrass, Large: 40
[10]; [17]
  Plant response rating, Crabgrass, Large: 40
[10]; [20]
  Plant response rating, Crabgrass, Large: 80
[11]; [15]
  Plant response rating, Foxtail, Giant: 0
[11]; [19]
  Plant response rating, Foxtail, Giant: 20
[11]; [17]
  Plant response rating, Foxtail, Giant: 0
[11]; [20]
  Plant response rating, Foxtail, Giant: 60
[12]; [15]
  Plant response rating, Pigweed: 100
[12]; [19]
  Plant response rating, Pigweed: 100
[12]; [17]
  Plant response rating, Pigweed: 90
[12]; [20]
  Plant response rating, Pigweed: 100

Reference: patent publication US8952024B2, “Herbicidal pyrimidone derivatives” (E I du Pont de Nemours and Company, priority 2009, dated 2015)
